Measurements published in paper PMC3612465 (International Journal of Alzheimer's Disease, 2013).
Read-outs that look alike come from different tables or passages of the source.

Columns and labels:
Aβ40 [1] = details: rat, single oral dose 10-100 mg/kg, 3 hr
Aβ40, Aβ42 [2] = test system: Aβ40, Aβ42; design: species or system TgCRND8 mouse; details: mouse, in vivo
From the text: (§1) Plasma and cortex Aβ42 were quantified in select TgCRND8 studies using biotin-4G8 and S-tag G2-11 and 4G8 antibodies.

Aβ40 [3] = assay: Subchronic (11 days q.d. or 6 days b.i.d.) Aβ lowering in nontransgenic mice; format: in vivo, nontransgenic B6C3F1 mouse
Aβ40, Aβ42 [4] = details: TgCRND8, single oral 30 mg/kg, 8 hr after dose
From the text: as §1

[5] = test system: HES-1, mATH1, KLF4 gene expression; assay: Notch pathway biomarker gene expression in jejunum (RT-PCR); format: in vivo, nontransgenic B6C3F1 mouse; details: nontransgenic mice
From the text: The jejunum was harvested, rinsed, and flash frozen in liquid nitrogen until later analyses. RNA was isolated from tissues using the Trizol reagent (Molecular Research Center, Inc.) followed by purification over an RNAeasy column (Qiagen).
RNA was purified over an RNAeasy column.

Aβ40 [6] = assay: Acute Aβ lowering in nontransgenic B6C3F1 mice; format: in vivo, nontransgenic B6C3F1 mouse; details: 3 hr
Aβ40, Aβ42 [7] = test system: Aβ40, Aβ42; design: species or system TgCRND8 mouse; details: mouse, in vivo, po, 100 mg/kg
[8] = test system: Aβ; Notch-related toxicity; design: method as in PMID 21190552; details: 7 days of b.i.d. dosing, cited from earlier work

| SMILES | cortex Aβ40 reduction (plateau) (Aβ40 [1]) | cortex Aβ40 reduction (Aβ40, Aβ42 [2]) [%] | cortex Aβ42 reduction (Aβ40, Aβ42 [2]) [%] | cortex Aβ reduction (Aβ40, Aβ42 [2]) [%] | reduction of Aβ at partial inhibition dose (Aβ40, Aβ42 [2]) | dose giving 50% lowering of cortical Aβ (Aβ40 [3]; nontransgenic mice, 11 days q.d. and 6 days b.i.d.) | increase in Aβ in the cortex (Aβ40 [3]; nontransgenic mice, 11 days q.d. and 6 days b.i.d., 3-100 mg/kg) | continuous inhibition of Aβ with q.d. dosing (Aβ40 [3]; q.d. dosing (100 mg/kg), without Notch-related side effects) [%] | cortex Aβ40 lowering (Aβ40, Aβ42 [4]) [%] | cortex Aβ42 lowering (Aβ40, Aβ42 [4]) [%] | mATH1 expression in the jejunum ([5]; 100 mg/kg 6 days b.i.d., P < 0.04) | HES-1 expression in the jejunum ([5]; 100 mg/kg, 11 days q.d. and 6 days b.i.d., P < 0.02) | KLF4 expression in the jejunum ([5]; 30 and 100 mg/kg 6 days b.i.d., P < 0.04) | mATH1 and KLF expression in the jejunum ([5]; 11 day q.d. groups) | cortex Aβ lowering (Aβ40 [6]; single oral 100 mg/kg) | cortex Aβ lowering (Aβ40 [6]; single oral 10, 30 and 100 mg/kg, P < 0.005) | cortex Aβ40 reduction (Aβ40, Aβ42 [7]) [%] | cortex Aβ42 reduction (Aβ40, Aβ42 [7]) [%] | lowering of Aβ ([8]; sustained but incomplete) | Notch-related toxicity (thymus weight, goblet cell hyperplasia in the ileum) [8] |
| --- | --- | --- | --- | --- | --- | --- | --- | --- | --- | --- | --- | --- | --- | --- | --- | --- | --- | --- | --- | --- |
| O=C(OC1([C@H]2CCC[C@@H](c3cc(F)cc(F)c3)N2S(=O)(=O)c2ccc(Cl)cc2)CC1)N1CCN(CCO)CC1 (relative stereo) [SCH 697466, 1-[cis-1-[(4-chlorophenyl)sulfonyl]-6-(3,5-difluorophenyl)-2-piperidinyl]cyclopropyl 4-(2-hydroxyethyl)-1-piperazinecarboxylate] | about 60% | 98 | 66 | 48 | ~ 50% | around 30 mg/kg | no evidence of an increase | > 80 | 82 | 42 | increased expression | significant decreases | increased expression | unchanged | Near complete lowering | significant lowering | 55 | 47 |  |  |
| O=S(=O)(c1ccc(Cl)cc1)N1[C@@H]2CCC[C@H]1c1cn[nH]c1C2 [ELN 475516] |  |  |  |  |  |  |  |  |  |  |  |  |  |  |  |  |  |  | ~ 74% | no evidence of Notch-related toxicity |
